Patent US8987312B2, “Alpha-keto heterocycles as FAAH inhibitors” (The Scripps Research Institute, priority 2008, dated 2015)
pIC50, pKi: −log10 of the molar value. Where two headings read alike, the source gives them in different places.

How the values were obtained:
Type in all cases: biochemical
[1] = biological target: T1, purified recombinant rat FAAH (Rattus norvegicus, UniProt P97612); test: FAAH inhibition enzyme assay (14C-oleamide hydrolysis, Dixon plot), rat enzyme
T1 construct: The truncated rat FAAH (rFAAH) was expressed in E. coli and purified as described; made in house; host or cells: Escherichia coli
T1 sequence (P97612 30-579 limits assumed): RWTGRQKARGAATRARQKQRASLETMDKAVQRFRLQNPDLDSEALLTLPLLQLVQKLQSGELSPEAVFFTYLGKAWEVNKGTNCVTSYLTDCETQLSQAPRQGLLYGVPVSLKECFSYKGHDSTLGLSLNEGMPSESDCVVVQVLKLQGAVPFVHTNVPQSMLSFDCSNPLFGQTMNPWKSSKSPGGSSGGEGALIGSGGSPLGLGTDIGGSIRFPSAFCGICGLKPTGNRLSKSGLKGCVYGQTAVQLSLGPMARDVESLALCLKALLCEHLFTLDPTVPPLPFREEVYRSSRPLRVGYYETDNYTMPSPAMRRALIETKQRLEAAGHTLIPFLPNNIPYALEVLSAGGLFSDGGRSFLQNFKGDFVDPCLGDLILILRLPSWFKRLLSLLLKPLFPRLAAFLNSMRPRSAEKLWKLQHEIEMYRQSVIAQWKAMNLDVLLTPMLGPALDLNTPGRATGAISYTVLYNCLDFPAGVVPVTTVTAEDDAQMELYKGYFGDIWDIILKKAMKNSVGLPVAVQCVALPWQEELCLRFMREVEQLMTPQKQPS
Excerpt: (§1) The purified recombinant rFAAH was used in the inhibition assays unless otherwise indicated.
(§2) The ^14C-labeled oleamide (substrate) and oleic acid (product) were extracted with EtOAc and analyzed by TLC.

[2] = biological target: T2, FAAH (Mus musculus, UniProt O08914); test: Activity based protein profiling (proteome-wide selectivity screening, FP-Rh), FAAH; conditions: Table 4
T2 construct: with FP-Rh in brain and heart membrane proteome; from tissue; host or cells: brain and heart membrane proteome
T2 sequence (O08914 1-579): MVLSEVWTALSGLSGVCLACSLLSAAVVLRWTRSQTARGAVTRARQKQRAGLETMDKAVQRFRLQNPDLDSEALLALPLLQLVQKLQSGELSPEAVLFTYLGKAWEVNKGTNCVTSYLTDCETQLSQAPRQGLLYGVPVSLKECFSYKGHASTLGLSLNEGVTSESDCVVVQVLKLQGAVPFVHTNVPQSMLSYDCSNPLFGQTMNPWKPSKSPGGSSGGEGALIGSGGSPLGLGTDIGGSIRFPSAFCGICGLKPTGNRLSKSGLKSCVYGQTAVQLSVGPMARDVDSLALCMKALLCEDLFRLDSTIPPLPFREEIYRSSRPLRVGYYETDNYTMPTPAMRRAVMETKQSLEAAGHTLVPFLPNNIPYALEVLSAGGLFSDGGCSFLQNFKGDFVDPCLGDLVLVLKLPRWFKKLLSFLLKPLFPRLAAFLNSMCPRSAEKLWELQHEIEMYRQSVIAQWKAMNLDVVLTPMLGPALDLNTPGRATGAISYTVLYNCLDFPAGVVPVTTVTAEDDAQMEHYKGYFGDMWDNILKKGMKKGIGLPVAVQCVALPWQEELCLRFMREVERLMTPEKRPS
Excerpt: (§3) Enzyme targets such as FAAH, KIAA1363, and TGH are labeled at the left margin.

[3] = biological target: T3, KIAA1363 (Mus musculus, UniProt Q8BLF1); test: Activity based protein profiling (proteome-wide selectivity screening, FP-Rh), KIAA1363; conditions: Table 4; for pIC50: activity based protein profiling; for KIAA1363 selectivity (value in parentheses): ratio KIAA1363 IC50 / FAAH IC50 (fold selectivity for FAAH)
T3 construct: with FP-Rh in brain and heart membrane proteome; from tissue; host or cells: brain and heart membrane proteome
T3 sequence (Q8BLF1 1-408): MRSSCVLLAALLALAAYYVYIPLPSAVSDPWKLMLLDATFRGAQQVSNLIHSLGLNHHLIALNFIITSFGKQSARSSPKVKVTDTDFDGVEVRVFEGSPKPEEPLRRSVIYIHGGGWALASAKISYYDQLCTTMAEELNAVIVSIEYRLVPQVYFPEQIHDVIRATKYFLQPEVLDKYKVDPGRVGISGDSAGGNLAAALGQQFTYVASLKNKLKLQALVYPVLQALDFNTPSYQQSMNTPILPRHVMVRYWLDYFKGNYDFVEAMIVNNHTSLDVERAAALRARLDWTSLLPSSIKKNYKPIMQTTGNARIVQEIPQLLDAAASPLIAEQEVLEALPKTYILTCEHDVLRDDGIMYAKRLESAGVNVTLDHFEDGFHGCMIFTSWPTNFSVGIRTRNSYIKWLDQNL
Excerpt: as §3

[4] = biological target: T4, triacylglycerol hydrolase (TGH) (Mus musculus, UniProt Q8VCT4); test: Activity based protein profiling (proteome-wide selectivity screening, FP-Rh), TGH; conditions: Table 4; for pIC50: activity based protein profiling; for TGH selectivity (value in parentheses): ratio TGH IC50 / FAAH IC50 (fold selectivity for FAAH)
T4 construct: with FP-Rh in brain and heart membrane proteome; from tissue; host or cells: brain and heart membrane proteome
T4 sequence (Q8VCT4 19-565): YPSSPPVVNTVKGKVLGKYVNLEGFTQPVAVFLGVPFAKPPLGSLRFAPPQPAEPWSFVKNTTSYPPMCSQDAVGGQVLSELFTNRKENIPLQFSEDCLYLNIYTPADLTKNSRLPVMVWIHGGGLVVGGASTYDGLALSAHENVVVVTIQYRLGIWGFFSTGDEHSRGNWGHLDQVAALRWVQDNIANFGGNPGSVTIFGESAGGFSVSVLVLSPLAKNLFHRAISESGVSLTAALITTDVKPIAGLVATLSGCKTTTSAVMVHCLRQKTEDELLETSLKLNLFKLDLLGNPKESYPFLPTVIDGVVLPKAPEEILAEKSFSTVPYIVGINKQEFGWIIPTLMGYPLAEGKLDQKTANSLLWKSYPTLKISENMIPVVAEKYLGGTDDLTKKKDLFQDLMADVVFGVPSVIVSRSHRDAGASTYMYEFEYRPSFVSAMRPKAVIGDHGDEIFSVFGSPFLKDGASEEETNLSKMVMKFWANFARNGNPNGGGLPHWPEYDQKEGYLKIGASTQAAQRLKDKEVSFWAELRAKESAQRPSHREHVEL
Excerpt: as §3

[5] = biological target: T5, recombinant human fatty acid amide hydrolase (Homo sapiens, UniProt O00519); test: FAAH inhibition enzyme assay, human enzyme (COS-7 lysate); conditions: Table 3
T5 construct: The full-length human FAAH (hFAAH) was expressed in COS-7 cells as described; expressed in transfected cells; host or cells: COS-7
T5 sequence (O00519 1-579): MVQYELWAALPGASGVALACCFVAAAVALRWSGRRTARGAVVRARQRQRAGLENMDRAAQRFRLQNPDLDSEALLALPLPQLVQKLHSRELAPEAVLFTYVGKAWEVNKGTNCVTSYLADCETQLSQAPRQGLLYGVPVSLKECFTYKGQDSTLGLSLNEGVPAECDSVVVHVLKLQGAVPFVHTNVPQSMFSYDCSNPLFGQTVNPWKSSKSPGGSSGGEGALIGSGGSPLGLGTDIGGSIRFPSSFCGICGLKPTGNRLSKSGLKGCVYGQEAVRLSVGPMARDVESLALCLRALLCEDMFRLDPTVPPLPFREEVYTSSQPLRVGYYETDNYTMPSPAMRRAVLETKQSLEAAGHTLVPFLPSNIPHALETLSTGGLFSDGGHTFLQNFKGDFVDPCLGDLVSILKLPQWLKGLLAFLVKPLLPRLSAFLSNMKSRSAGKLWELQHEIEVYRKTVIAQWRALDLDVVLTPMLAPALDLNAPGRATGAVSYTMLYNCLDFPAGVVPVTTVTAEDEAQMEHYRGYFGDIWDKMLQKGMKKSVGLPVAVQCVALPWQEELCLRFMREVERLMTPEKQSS
Excerpt: as §1, §2

[6] = Table 2, rat FAAH, pH 9 assay conditions, read-out: Ki

SMILES	pKi ([1]; Table 4, read-out: FAAH Ki)	pIC50 [2]	pIC50 [3]	KIAA1363 selectivity (value in parentheses) [3]	pIC50 [4]	TGH selectivity (value in parentheses) [4]	pKi [1, 6]	Ki [5] [µM]
N#Cc1cccc(-c2ccc(C(=O)CCCCCCc3ccccc3)nn2)n1 [13h, 6-(6-(7-Phenylheptanoyl)-pyridazin-3-yl)-picolinonitrile]	6.41	4.89	< 4.00	> 8	4.92	1		
O=C(CCCCCCc1ccccc1)c1ncc(-c2ccccc2)o1 [7e]		6.05	< 4.00		6.15			
COC(=O)c1cccc(-c2noc(C(=O)CCCCCCc3ccccc3)n2)n1 [9f, Methyl 6-(5-(7-Phenylheptanoyl)-1,2,4-oxadiazol-3-yl)-picolinate]	8.52	8.52	4.40	13000	6.82	50	8.52	
O=C(CCCCCCc1ccccc1)c1nnn(-c2ccccn2)n1 [15b, 7-Phenyl-1-(2-(pyridin-2-yl)-2H-tetrazol-5-yl)-heptan-1-one]			< 4.00		6.92			0.0055
COC(=O)c1cccc(-c2ccc(C(=O)CCCCCCc3ccccc3)nn2)n1 [13f, Methyl 6-(6-(7-Phenylheptanoyl)-pyridazin-3-yl)-picolinate]	6.96	5.00	< 4.00	> 10	< 4.00	> 10	6.96	
COC(=O)c1cccc(-c2cnc(C(=O)CCCCCCc3ccccc3)o2)n1 [7f]		6.77	4.40		6.00			
COC(=O)c1cccc(-c2nnc(C(=O)CCCCCCc3ccccc3)o2)n1 [8f, Methyl 6-(5-(7-Phenylheptanoyl)-1,3,4-oxadiazol-2-yl)-picolinate]	8.52	8.10	< 4.00	> 12500	7.40	5	8.52	
O=C(CCCCCCc1ccccc1)c1ncc(-c2cccs2)o1 [7d]	7.26	6.10	< 4.00	> 125	6.70	0.25	7.26	
COC(=O)c1cccc(-c2cnc(C(=O)CCCCCCc3ccccc3)s2)n1 [11f, Methyl 6-(2-(7-Phenylheptanoyl)-thiazol-5-yl)-picolinate]	6.30	< 4.00	< 4.00		4.40	< 0.4	6.30	
